Legend:
[1] = Whole Blood Stability Assay (mouse whole blood); format: in vitro ADME; conditions: CD-1 mouse blood, EDTA-K2, final conc. 2 μM, 37° C., 0-120 min; for half-life at 2 μM: male, fresh whole blood, read-out: Mouse Whole Blood Stability t1/2
How it was run: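 Compound at 2 μM final was incubated at 37 °C in fresh EDTA-K2 blood from male CD-1 mice. Samples at 0, 10, 30, 60 and 120 min were protein-precipitated with acetonitrile and analysed by LC-MS/MS. % remaining was derived from analyte/internal-standard peak area ratios.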

[2] = Plasma Stability Assay (human plasma); format: in vitro ADME; conditions: both sexes; pooled human plasma, heparin, final conc. 2 μM, 37° C., 0-120 min; read-out: Human Plasma Stability t1/2
How it was run: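 Compound at 2 μM final in pooled heparinised plasma (3 male, 3 female), incubated at 37° C with sampling at 0, 10, 30, 60 and 120 min. Acetonitrile stop, LC-MS/MS; % remaining from analyte/internal-standard peak area ratio relative to T0.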

SMILES	Mouse Whole Blood Stability t1/2 [1] [min]	half-life at 2 μM [2] [min]	half-life at 2 μM [1] [min]
CCC(=O)Oc1cc(-c2ncc3c(N4C[C@@H]5C[C@H](C4)[C@H](O)C5)nc(OC[C@@]45CCCN4C[C@H](F)C5)nc3c2F)c2c(CC)c(F)ccc2c1 [Example 2, 5-ethyl-6-fluoro-4-(8-fluoro-2-(((2R,7aS)-2-fluorotetrahydro-1H-pyrrolizin-7a(5H)-yl)methoxy)-4-((1R,5R,6R)-6-hydroxy-3-azabicyclo[3.2.1]octan-3-yl)pyrido[4,3-d]pyrimidin-7-yl)naphthalen-2-yl propionate]	1	13	
CCc1c(F)ccc2cc(OC(=O)N3CCCCCC3)cc(N3CCc4c(nc(OC[C@@]56CCCN5C[C@H](F)C6)nc4N4CCC[C@]5(C4)NC(=O)NC5=O)C3)c12 [Example 53, 4-(4-((R)-2,4-dioxo-1,3,7-triazaspiro[4.5]decan-7-yl)-2-(((2R,7aS)-2-fluorotetrahydro-1H-pyrrolizin-7a(5H)-yl)methoxy)-5,8-dihydropyrido[3,4-d]pyrimidin-7(6H)-yl)-5-ethyl-6-fluoronaphthalen-2-yl azepane-1-carboxylate]		> 289	> 289
CCc1c(F)ccc2cc(OC(=O)N3CCCCC3)cc(N3CCc4c(nc(OC[C@@]56CCCN5C[C@H](F)C6)nc4N4CCC[C@]5(C4)NC(=O)NC5=O)C3)c12 [Example 48, 4-(4-((R)-2,4-dioxo-1,3,7-triazaspiro[4.5]decan-7-yl)-2-(((2R,7aS)-2-fluorotetrahydro-1H-pyrrolizin-7a(5H)-yl)methoxy)-5,8-dihydropyrido[3,4-d]pyrimidin-7(6H)-yl)-5-ethyl-6-fluoronaphthalen-2-yl piperidine-1-carboxylate]		> 289	106
CCc1c(F)ccc2cc(OC(=O)N3CCCC[C@H]3C)cc(N3CCc4c(nc(OC[C@@]56CCCN5C[C@H](F)C6)nc4N4CCC[C@]5(C4)NC(=O)NC5=O)C3)c12 [Example 57, 4-(4-((R)-2,4-dioxo-1,3,7-triazaspiro[4.5]decan-7-yl)-2-(((2R,7aS)-2-fluorotetrahydro-1H-pyrrolizin-7a(5H)-yl)methoxy)-5,8-dihydropyrido[3,4-d]pyrimidin-7(6H)-yl)-5-ethyl-6-fluoronaphthalen-2-yl (R)-2-methylpiperidine-1-carboxylate]		> 289	> 289
CCc1c(F)ccc2cc(OC(=O)N3CCCC[C@@H]3C)cc(N3CCc4c(nc(OC[C@@]56CCCN5C[C@H](F)C6)nc4N4CCC[C@]5(C4)NC(=O)NC5=O)C3)c12 [Example 55, 4-(4-((R)-2,4-dioxo-1,3,7-triazaspiro[4.5]decan-7-yl)-2-(((2R,7aS)-2-fluorotetrahydro-1H-pyrrolizin-7a(5H)-yl)methoxy)-5,8-dihydropyrido[3,4-d]pyrimidin-7(6H)-yl)-5-ethyl-6-fluoronaphthalen-2-yl(S)-2-methylpiperidine-1-carboxylate]		> 289	> 289
CCc1c(F)ccc2cc(OC(=O)N3CCC3)cc(N3CCc4c(nc(OC[C@@]56CCCN5C[C@H](F)C6)nc4N4CCC[C@]5(C4)NC(=O)NC5=O)C3)c12 [Example 37, 4-(4-((R)-2,4-dioxo-1,3,7-triazaspiro[4.5]decan-7-yl)-2-(((2R,7aS)-2-fluorotetrahydro-1H-pyrrolizin-7a(5H)-yl)methoxy)-5,8-dihydropyrido[3,4-d]pyrimidin-7(6H)-yl)-5-ethyl-6-fluoronaphthalen-2-yl azetidine-1-carboxylate]		> 289	189
CCc1c(F)ccc2cc(OC(=O)N(C)C)cc(-c3ncc4c(N5C[C@@H]6C[C@H](C5)[C@H](O)C6)nc(OC[C@@]56CCCN5C[C@H](F)C6)nc4c3F)c12 [Example 6, 5-ethyl-6-fluoro-4-(8-fluoro-2-(((2R,7aS)-2-fluorotetrahydro-1H-pyrrolizin-7a(5H)-yl)methoxy)-4-((1R,5R,6R)-6-hydroxy-3-azabicyclo[3.2.1]octan-3-yl)pyrido[4,3-d]pyrimidin-7-yl)naphthalen-2-yl dimethylcarbamate]		> 289	> 289

Second part, led by results:

Mouse Whole Blood Stability t1/2 [1] [min]	half-life at 2 μM [2] [min]	SMILES	half-life at 2 μM [1] [min]
1	41	CCc1c(F)ccc2cc(OC(=O)C3CCCCC3)cc(-c3ncc4c(N5C[C@@H]6C[C@H](C5)[C@H](O)C6)nc(OC[C@@]56CCCN5C[C@H](F)C6)nc4c3F)c12 [Example 21, 5-ethyl-6-fluoro-4-(8-fluoro-2-(((2R,7aS)-2-fluorotetrahydro-1H-pyrrolizin-7a(5H)-yl)methoxy)-4-((1R,5R,6R)-6-hydroxy-3-azabicyclo[3.2.1]octan-3-yl)pyrido[4,3-d]pyrimidin-7-yl)naphthalen-2-yl cyclohexanecarboxylate]	
	> 289	CCc1c(F)ccc2cc(OC(C)OC(=O)N(C)C)cc(-c3ncc4c(N5C[C@@H]6C[C@H](C5)[C@H](O)C6)nc(OC[C@@]56CCCN5C[C@H](F)C6)nc4c3F)c12 (stereo partly drawn) [Example 22, 1-((5-ethyl-6-fluoro-4-(8-fluoro-2-(((2R,7aS)-2-fluorotetrahydro-1H-pyrrolizin-7a(5H)-yl)methoxy)-4-((1R,5R,6R)-6-hydroxy-3-azabicyclo[3.2.1]octan-3-yl)pyrido[4,3-d]pyrimidin-7-yl)naphthalen-2-yl)oxy)ethyl dimethylcarbamate]	> 289
	> 289	CCc1c(F)ccc2cc(OC(=O)C34CC5CC(CC(C5)C3)C4)cc(N3CCc4c(nc(OC[C@@]56CCCN5C[C@H](F)C6)nc4N4CCC[C@]5(C4)NC(=O)NC5=O)C3)c12 [Example 63, 4-(4-((R)-2,4-dioxo-1,3,7-triazaspiro[4.5]decan-7-yl)-2-(((2R,7aS)-2-fluorotetrahydro-1H-pyrrolizin-7a(5H)-yl)methoxy)-5,8-dihydropyrido[3,4-d]pyrimidin-7(6H)-yl)-5-ethyl-6-fluoronaphthalen-2-yl (3r,5r,7r)-adamantane-1-carboxylate]	13
	16	CCc1c(F)ccc2cc(OC(=O)C3CCC3)cc(-c3ncc4c(N5C[C@@H]6C[C@H](C5)[C@H](O)C6)nc(OC[C@@]56CCCN5C[C@H](F)C6)nc4c3F)c12 [Example 13, 5-ethyl-6-fluoro-4-(8-fluoro-2-(((2R,7aS)-2-fluorotetrahydro-1H-pyrrolizin-7a(5H)-yl)methoxy)-4-((1R,5R,6R)-6-hydroxy-3-azabicyclo[3.2.1]octan-3-yl)pyrido[4,3-d]pyrimidin-7-yl)naphthalen-2-yl cyclobutanecarboxylate]	6
1	65	CCCCCCCC(=O)Oc1cc(-c2ncc3c(N4C[C@@H]5C[C@H](C4)[C@H](O)C5)nc(OC[C@@]45CCCN4C[C@H](F)C5)nc3c2F)c2c(CC)c(F)ccc2c1 [Example 24, 5-ethyl-6-fluoro-4-(8-fluoro-2-(((2R,7aS)-2-fluorotetrahydro-1H-pyrrolizin-7a(5H)-yl)methoxy)-4-((1R,5R,6R)-6-hydroxy-3-azabicyclo[3.2.1]octan-3-yl)pyrido[4,3-d]pyrimidin-7-yl)naphthalen-2-yl octanoate]	
	51	CCc1c(F)ccc2cc(OC(=O)C3CC3)cc(N3CCc4c(nc(OC[C@@]56CCCN5C[C@H](F)C6)nc4N4CCC[C@]5(C4)NC(=O)NC5=O)C3)c12 [Example 32, 4-(4-((R)-2,4-dioxo-1,3,7-triazaspiro[4.5]decan-7-yl)-2-(((2R,7aS)-2-fluorotetrahydro-1H-pyrrolizin-7a(5H)-yl)methoxy)-5,8-dihydropyrido[3,4-d]pyrimidin-7(6H)-yl)-5-ethyl-6-fluoronaphthalen-2-yl cyclopropanecarboxylate]	2
	> 289	CCc1c(F)ccc2cc(OC(=O)C3(C)CCC3)cc(N3CCc4c(nc(OC[C@@]56CCCN5C[C@H](F)C6)nc4N4CCC[C@]5(C4)NC(=O)NC5=O)C3)c12 [Example 61, 4-(4-((R)-2,4-dioxo-1,3,7-triazaspiro[4.5]decan-7-yl)-2-(((2R,7aS)-2-fluorotetrahydro-1H-pyrrolizin-7a(5H)-yl)methoxy)-5,8-dihydropyrido[3,4-d]pyrimidin-7(6H)-yl)-5-ethyl-6-fluoronaphthalen-2-yl 1-methylcyclobutane-1-carboxylate]	2
	46	CCCC(=O)Oc1cc(-c2ncc3c(N4C[C@@H]5C[C@H](C4)[C@H](O)C5)nc(OC[C@@]45CCCN4C[C@H](F)C5)nc3c2F)c2c(CC)c(F)ccc2c1 [Example 11, 5-ethyl-6-fluoro-4-(8-fluoro-2-(((2R,7aS)-2-fluorotetrahydro-1H-pyrrolizin-7a(5H)-yl)methoxy)-4-((1R,5R,6R)-6-hydroxy-3-azabicyclo[3.2.1]octan-3-yl)pyrido[4,3-d]pyrimidin-7-yl)naphthalen-2-yl butyrate]	< 5
1	27	CCc1c(F)ccc2cc(OC(=O)OC)cc(N3CCc4c(nc(OC[C@@]56CCCN5C[C@H](F)C6)nc4N4CCC[C@]5(C4)NC(=O)NC5=O)C3)c12 [Example 30, 4-(4-((R)-2,4-dioxo-1,3,7-triazaspiro[4.5]decan-7-yl)-2-(((2R,7aS)-2-fluorotetrahydro-1H-pyrrolizin-7a(5H)-yl)methoxy)-5,8-dihydropyrido[3,4-d]pyrimidin-7(6H)-yl)-5-ethyl-6-fluoronaphthalen-2-yl methyl carbonate]	
